The experiment deals with T1, human CCR1 (Homo sapiens, UniProt P32246).
T1 sequence (P32246 1-355): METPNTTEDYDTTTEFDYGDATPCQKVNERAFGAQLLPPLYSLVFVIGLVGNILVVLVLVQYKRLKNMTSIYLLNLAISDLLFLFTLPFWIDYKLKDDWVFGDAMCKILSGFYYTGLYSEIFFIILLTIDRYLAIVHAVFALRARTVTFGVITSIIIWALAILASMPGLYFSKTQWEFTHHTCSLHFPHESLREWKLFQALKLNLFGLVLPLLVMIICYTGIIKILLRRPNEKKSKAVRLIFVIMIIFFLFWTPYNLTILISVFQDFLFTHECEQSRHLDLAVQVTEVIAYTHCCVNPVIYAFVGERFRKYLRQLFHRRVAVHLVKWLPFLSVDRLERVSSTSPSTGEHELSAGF
Nature of the experiment: CCR1 binding protocol (SPA, [125I]-MIP-1α displacement). Conditions: cell membrane expressing human CCR1, 0.1 nM [125I]-MIP-1α, 4 hours at ambient temperature; read-out: Relative potency (IC50). In outline: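 Displacement of 0.1 nM [125I]-MIP-1α (final) from membranes expressing human CCR1 was measured by scintillation proximity after 4 h at ambient temperature. Conditions: pH 7.4 Tris buffer with 0.1% BSA and MnCl, and 0.5 μg membrane per well. Compounds were tested as a 10-step ½-log series from a 10 mM DMSO stock to derive IC50.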
For `Cc1onc(-c2ccccc2)c1NC(=O)N1C[C@H](O)C[C@@H]1c1nnc(C)n1Cc1ccc(Cl)cc1` [Compound 392], the IC50 fell in the range of 50 to 500 nM.

For the molecule `Cc1c(NC(=O)N2CCC[C@@H]2c2nnc(C)n2Cc2ccc(Cl)cc2)cccc1C(=O)N(C)C` [Compound 238], the 50% inhibitory concentration (IC50) lay in the range of 50 to 500 nM.

Turning to `Cc1onc(-c2ccc(Cl)cc2)c1NC(=O)N1CCC[C@@H]1c1nnc(C)n1Cc1ccc(Cl)cc1` [Compound 293], the IC50 was below 50 nM.

For `Cc1nnc([C@H]2CCCN2C(=O)N[C@@H](C)c2ccc(F)cc2)n1Cc1ccc(Cl)cc1` [Compound 218], the IC50 was below 50 nM.

With `CC[C@H](NC(=O)N1CCC[C@@H]1c1nnc(C)n1Cc1ccc(Cl)cc1)c1ccc(Cl)c(Cl)c1` [Compound 191], the 50% inhibitory concentration (IC50) was below 50 nM.

Regarding `Cc1cc(C(F)(F)F)cc(C)c1NC(=O)N1CCC[C@@H]1c1nnc(C)n1Cc1ccc(Cl)cc1` [Compound 102], the IC50 was below 50 nM.

With `CC[C@H](NC(=O)N1CCC[C@@H]1c1nc(C)nn1Cc1ccc(Cl)cc1)c1c(C)cc(C(F)(F)F)cc1C` [Compound 97], the IC50 fell in the range of 500 to 5000 nM.

Regarding `Cc1nnc([C@H]2CCCN2C(=O)N[C@H]2CCOc3c(F)cc(F)cc32)n1Cc1ccc(Cl)cc1` [Compound 153], the IC50 is below 50 nM.

As for `Cc1cc(C(F)(F)F)ccc1NC(=O)N1CCC[C@@H]1c1nncn1Cc1ccc(Cl)cc1` [Compound 104], the concentration for half-maximal inhibition (IC50) is below 50 nM.

With `Cc1nnc([C@H]2CCCN2C(=O)Nc2ccc(C#N)cc2F)n1Cc1ccc(Cl)cc1` [Compound 454], the IC50 lay within 50 to 500 nM.

`Cc1nnc([C@H]2CCCN2C(=C[N+](=O)[O-])Nc2ccc(C(F)(F)F)cc2)n1Cc1ccc(Cl)cc1` [Compound 257]: the concentration for half-maximal inhibition (IC50) is 500 to 5000 nM.

Consider `Cc1nnc([C@H]2CCCN2C(=O)C[C@@H](C)c2ccccc2)n1Cc1ccc(Cl)cc1` [Compound 482], for which the IC50 lay within 500 to 5000 nM.

Turning to `Cc1noc(C(F)(F)F)c1NC(=O)N1CCC[C@@H]1c1nnc(C)n1Cc1ccc(Cl)cc1` [Compound 616], the IC50 is below 50 nM.

With `Cc1onc(-c2ccccc2)c1NC(=O)N1CCC[C@@H]1c1nnnn1Cc1ccc(Cl)cc1` [Compound 52], the IC50 is below 50 nM.

As to `CC[C@H](NC(=O)N1CCC[C@@H]1c1nnc(C)n1Cc1ccc(Cl)cc1)c1ccccc1` [Compound 181], the IC50 was below 50 nM.

With `Cc1onc(-c2ccccc2Cl)c1NC(=O)N1CCC[C@@H]1c1nnc(C)n1Cc1ccc(Cl)cc1` [Compound 276], the IC50 is below 50 nM.

As to `CC(=O)N1CCCC(CNC(=O)N2CCC[C@@H]2c2nnc(C)n2Cc2ccc(Cl)cc2)C1` (some centres unmarked) [Compound 599], the IC50 is 50 to 500 nM.

With `Cc1nnc([C@H]2CCCN2C(=O)N[C@H]2CCOc3cccc(F)c32)n1Cc1ccc(Cl)cc1` [Compound 164], the concentration for half-maximal inhibition (IC50) was 50 to 500 nM.

For `CC1(C)CC[C@@H](NC(=O)N2CCC[C@@H]2c2ncnn2Cc2ccc(Cl)cc2)c2ccccc21` [Compound 77], the IC50 fell in the range of 50 to 500 nM.

In the case of `Cc1nnc([C@H]2CCCN2C(=O)NCC2CCN(S(C)(=O)=O)C2)n1Cc1ccc(Cl)cc1` (some centres unmarked) [Compound 593], the IC50 is 50 to 500 nM.

As for `CC1(C)CC(NC(=O)N2CCC[C@@H]2c2ncnn2Cc2ccc(Cl)cc2)c2ccccc2O1` (some centres unmarked) [Compound 85], the IC50 lay in the range of 50 to 500 nM.

As for `O=C(N[C@H]1CCOc2cc(C(F)(F)F)ccc21)N1CCC[C@@H]1c1nnc(Cl)n1Cc1ccc(Cl)cc1` [Compound 194], the IC50 is below 50 nM.

For `Cc1nc(C(F)(F)F)ccc1NC(=O)N1CCC[C@@H]1c1nnc(C)n1Cc1ccc(F)cc1` [Compound 531], the IC50 was in the range of 50 to 500 nM.

With `Cc1nnc([C@H]2C[C@@H](O)CN2C(=O)Nc2ccc(OC3CCOCC3)nc2)n1Cc1ccc(Cl)cc1` [Compound 558], the concentration for half-maximal inhibition (IC50) is 500 to 5000 nM.

Consider `Cc1cccc(C(=O)N(C)C)c1NC(=O)N1CCC[C@@H]1c1nnc(C)n1Cc1ccc(Cl)cc1` [Compound 233], for which the IC50 fell in the range of 50 to 500 nM.

Turning to `CC[C@H](NC(=O)N1CCC[C@@H]1c1nnc(C)n1Cc1ccc(Br)cc1)c1ccc(C(F)(F)F)cc1` [Compound 578], the IC50 was below 50 nM.

As to `Cc1nc(C(F)(F)F)ccc1NC(=O)N1CCC[C@@H]1c1nnc(C)n1Cc1ccc(Cl)cc1` [Compound 404], the IC50 is below 50 nM.

Turning to `Cc1cc(C#N)ccc1NC(=O)N1CC(F)C[C@@H]1c1nnc(C)n1Cc1ccc(Cl)cc1` (some centres unmarked) [Compound 581], the IC50 lay within 50 to 500 nM.

As for `Cc1nc(-c2ccccc2)sc1NC(=O)N1CCC[C@@H]1c1ncnn1Cc1ccc(Cl)cc1` [Compound 83], the IC50 was 50 to 500 nM.

For the molecule `Cc1nnc([C@H]2CCCN2C(=O)Nc2ccccc2S(C)(=O)=O)n1Cc1ccc(Cl)cc1` [Compound 378], the IC50 lay in the range of 50 to 500 nM.

With `Cc1nnc([C@H]2CCCN2C(=O)N[C@H]2CCOc3cc(C#N)ccc32)n1Cc1ccc(Cl)cc1` [Compound 207], the IC50 was below 50 nM.

On to `CC(C)(NC(=O)N1CCC[C@@H]1c1ncncc1Cc1ccc(Cl)cc1)c1ccccc1` [Compound 28], for which the IC50 was 500 to 5000 nM.

Take `Cc1nnc([C@H]2CCCN2C(=O)NC2(c3ccccc3F)CC2)n1Cc1ccc(Cl)cc1` [Compound 273]: the IC50 is below 50 nM.

In the case of `CC[C@H](NC(=O)N1CCC[C@@H]1c1nnc(C)n1Cc1ccc(Cl)cc1)c1ccc(C)nc1C` [Compound 625], the IC50 was below 50 nM.

Take `Cc1nc(Cl)c(NC(=O)N2CCC[C@@H]2c2nnc(C)n2Cc2ccc(Cl)cc2)c(Cl)n1` [Compound 178]: the IC50 was below 50 nM.

`Cc1nnc([C@H]2CCCN2C(=O)N[C@@H](C)C(C)C)n1Cc1ccc(Cl)cc1` [Compound 343]: the IC50 was 50 to 500 nM.

Consider `Cc1noc(-c2ccccc2)c1NC(=O)N1CCC[C@@H]1c1ncncc1Cc1ccc(Cl)cc1` [Compound 14], for which the IC50 was below 50 nM.

As to `Cc1nnc([C@H]2CCCN2C(=O)Nc2cccc(S(N)(=O)=O)c2)n1Cc1ccc(Cl)cc1` [Compound 354], the IC50 was 500 to 5000 nM.

As to `Cc1nnc([C@H]2CCCN2C(=O)Nc2cc(C(N)=O)ccc2C(F)(F)F)n1Cc1ccc(Cl)cc1` [Compound 358], the concentration for half-maximal inhibition (IC50) lay in the range of 50 to 500 nM.

Take `CCc1nnc([C@H]2CCCN2C(=O)Nc2ccc(Cl)cc2F)n1Cc1ccc(Cl)cc1` [Compound 583]: the IC50 was below 50 nM.

As to `Cc1onc(-c2ccccc2)c1NC(=O)N1CCC[C@@H]1c1nncn1Cc1ccc(Cl)cc1` [Compound 109], the IC50 was below 50 nM.

In the case of `O=C(NCc1ccc(C(F)(F)F)cc1)N1CCC[C@@H]1c1nnc(CO)n1Cc1ccc(Cl)cc1` [Compound 312], the IC50 was below 50 nM.

As for `Cc1onc(-c2ccccc2)c1NC(=O)N1CCC[C@@H]1c1ncnn1Cc1ccc(Cl)cc1` [Compound 62], the half-inhibitory concentration (IC50) is below 50 nM.

With `Cc1cc(C)c(S(N)(=O)=O)cc1NC(=O)N1CCC[C@@H]1c1nnc(C)n1Cc1ccc(Cl)cc1` [Compound 469], the IC50 was below 50 nM.

For the molecule `Cc1noc(C)c1NC(=O)N1CCC[C@@H]1c1nnc(CO)n1Cc1ccc(Cl)cc1` [Compound 323], the IC50 fell in the range of 50 to 500 nM.

`Cc1nnc([C@H]2CCCN2C(=O)NCC2CN(S(C)(=O)=O)C2)n1Cc1ccc(Cl)cc1` [Compound 591]: the 50% inhibitory concentration (IC50) is 500 to 5000 nM.

As for `O=C(NC1CCc2cc(C(F)(F)F)ccc21)N1CCC[C@@H]1c1ncnn1Cc1ccc(Cl)cc1` (some centres unmarked) [Compound 86], the IC50 was 50 to 500 nM.

As to `Cc1nc(C(F)(F)F)nc(C)c1NC(=O)N1CCC[C@@H]1c1nnc(C)n1Cc1ccc(Cl)cc1` [Compound 466], the half-inhibitory concentration (IC50) was below 50 nM.

As to `Cc1nnc([C@H]2C[C@@H](O)CN2C(=O)NC2CCOc3cc(C#N)ccc32)n1Cc1ccc(Cl)cc1` (some centres unmarked) [Compound 444], the IC50 was in the range of 50 to 500 nM.

`O=C(Nc1ccc(Cl)cc1F)N1CCC[C@@H]1c1nnnn1Cc1ccc(Cl)cc1` [Compound 54]: the IC50 was 50 to 500 nM.

Regarding `Cc1cc(C(F)(F)F)cc(Br)c1NC(=O)N1CCC[C@@H]1c1ncnn1Cc1ccc(Cl)cc1` [Compound 61], the IC50 is below 50 nM.

For the molecule `Cc1noc(C)c1NC(=O)N1CCC[C@@H]1c1nnc(C)n1[C@H](C)c1ccc(Cl)cc1` [Compound 365], the IC50 is 50 to 500 nM.

Turning to `Cc1nnc([C@H]2CCCN2C(=O)Nc2ccc(Cl)c(C(F)(F)F)c2)n1Cc1ccc(Cl)cc1` [Compound 441], the IC50 was in the range of 50 to 500 nM.

For the molecule `Cc1nnc([C@H]2CCCN2C(=O)N[C@H]2CCc3cc(Cl)ccc32)n1Cc1ccc(Cl)cc1` [Compound 127], the IC50 is below 50 nM.

Take `Cc1onc(-c2ccc(F)cc2)c1NC(=O)N1CCC[C@@H]1c1nnc(C)n1Cc1ccc(Cl)cc1` [Compound 297]: the IC50 was below 50 nM.

For the molecule `Cc1nnc([C@H]2CCCN2C(=O)Nc2ccc(Cl)c(S(C)(=O)=O)c2)n1Cc1ccc(Cl)cc1` [Compound 443], the IC50 fell in the range of 50 to 500 nM.

For the molecule `Cc1nnc([C@H]2CCCN2C(=O)Cc2cccc(C(F)(F)F)c2F)n1Cc1ccc(Cl)cc1` [Compound 505], the IC50 lay within 50 to 500 nM.

Take `Cc1sc(NC(=O)N2CCC[C@@H]2c2nnc(C)n2Cc2ccc(Cl)cc2)nc1-c1ccccc1` [Compound 597]: the concentration for half-maximal inhibition (IC50) was in the range of 500 to 5000 nM.

As to `Cc1nnc([C@H]2CC(F)CN2C(=O)Nc2ccc(Cl)cc2F)n1Cc1ccc(Cl)cc1` (some centres unmarked) [Compound 571], the concentration for half-maximal inhibition (IC50) was in the range of 50 to 500 nM.

Turning to `Cc1onc(-c2ccccc2)c1NC(=O)N1CCC[C@@H]1c1nccn1Cc1ccc(Cl)cc1` [Compound 35], the IC50 is below 50 nM.

With `Cc1nnc([C@H]2CCCN2C(=O)NCc2ccc(C(F)(F)F)nc2)n1Cc1ccc(Cl)cc1` [Compound 221], the IC50 fell in the range of 50 to 500 nM.

On to `Cc1cc(C)c(C(=O)O)cc1NC(=O)N1CCC[C@@H]1c1nnc(C)n1Cc1ccc(Cl)cc1` [Compound 346], for which the IC50 was in the range of 50 to 500 nM.

The values above are taken from US8288371B2, “Ortho pyrrolidine, benzyl-substituted heterocycle CCR1 antagonists for autoimmune diseases and inflammation” (Pharmacopeia, LLC, priority 2007, dated 2012).
